Measured values as given in ChEMBL document CHEMBL3045154, “Synthesis and Insecticidal Activity of 1, 3-Dithianes” (1991).

Tests used:
Format in all cases: functional
[1] = test system: Henosepilachna vigintioctopunctata; experiment: Insecticidal activity against third-instar larvae of Henosepilachna vigintioctopunctata assessed as mortality at 100 ppm after 2 days; details: 48 h
Tetranychus urticae = experiment: Insecticidal activity against Tetranychus urticae (two-spotted spider mite) in kidney bean plant leaf assessed as mortality at 500 ppm after 2 days; details: 48 h
Chilo suppressalis = experiment: Insecticidal activity against 5th instar larva of Chilo suppressalis assessed as mortality at 50 ug/g after 48 hr

CN(C)C1CSCSC1
mortality at 100 ppm [1]: 10%
mortality at 500 ppm (Tetranychus urticae): 20%
mortality (Chilo suppressalis): 30%

CC1SCC(N(C)C)CS1 (stereo unspecified)
mortality at 100 ppm [1]: 10%
mortality at 500 ppm (Tetranychus urticae): 30%
mortality (Chilo suppressalis): 10%

CN(C)C1CSC(C#N)(c2ccccc2)SC1 (stereo unspecified)
mortality at 100 ppm [1]: 30%
mortality at 500 ppm (Tetranychus urticae): 100%
mortality (Chilo suppressalis): 100%

CN(C)C1CSC(C#N)(c2ccc(Cl)cc2)SC1 (stereo unspecified)
mortality at 500 ppm (Tetranychus urticae): 100%
mortality (Chilo suppressalis): 100%

CN(C)C1CSC(C#N)(C(N)=O)SC1 (stereo unspecified)
mortality at 100 ppm [1]: 85%
mortality at 500 ppm (Tetranychus urticae): 100%
mortality (Chilo suppressalis): 100%

CNC(=O)C1(C#N)SCC(N(C)C)CS1 (stereo unspecified)
mortality at 100 ppm [1]: 85%
mortality at 500 ppm (Tetranychus urticae): 100%
mortality (Chilo suppressalis): 100%

N#CC1(C(=O)O)SCCCS1
mortality at 500 ppm (Tetranychus urticae): 0%
mortality (Chilo suppressalis): 0%

N#CC1(c2ccc(Cl)cc2)SCCCS1
mortality at 500 ppm (Tetranychus urticae): 0%
mortality (Chilo suppressalis): 0%

N#CC1(c2ccc(Cl)cc2)SCC(O)CS1 (stereo unspecified)
mortality at 500 ppm (Tetranychus urticae): 30%
mortality (Chilo suppressalis): 0%

O=C(c1ccccc1)C1(C(=O)c2ccccc2)SCC(O)CS1
mortality at 500 ppm (Tetranychus urticae): 40%
mortality (Chilo suppressalis): 0%

CCOP(=S)(OCC)OC1CSC(C#N)(c2ccc(Cl)cc2)SC1 (stereo unspecified)
mortality at 500 ppm (Tetranychus urticae): 40%
mortality (Chilo suppressalis): 0%

CC(C)C(C(=O)OC1CSC(C#N)(c2ccc(Cl)cc2)SC1)c1ccc(Cl)cc1 (stereo unspecified)
mortality at 500 ppm (Tetranychus urticae): 20%
mortality (Chilo suppressalis): 0%

CNC(=O)OC1CSC(C#N)(c2ccc(Cl)cc2)SC1 (stereo unspecified)
mortality at 500 ppm (Tetranychus urticae): 30%
mortality (Chilo suppressalis): 0%

N#CC1(c2ccc(Cl)cc2)SCC(OC(=O)Nc2ccc(Cl)cc2)CS1 (stereo unspecified)
mortality at 500 ppm (Tetranychus urticae): 60%
mortality (Chilo suppressalis): 0%

CNC1CSC(C#N)(c2ccc(Cl)cc2)SC1 (stereo unspecified)
mortality at 500 ppm (Tetranychus urticae): 30%
mortality (Chilo suppressalis): 10%

CCN(CC)C1CSC(C#N)(c2ccc(Cl)cc2)SC1 (stereo unspecified)
mortality at 500 ppm (Tetranychus urticae): 100%
mortality (Chilo suppressalis): 100%

CCCCN(CCCC)C1CSC(C#N)(c2ccc(Cl)cc2)SC1 (stereo unspecified)
mortality at 500 ppm (Tetranychus urticae): 100%
mortality (Chilo suppressalis): 50%

N#CC1(c2ccc(Cl)cc2)SCC(N2CCCC2)CS1 (stereo unspecified)
mortality at 500 ppm (Tetranychus urticae): 100%
mortality (Chilo suppressalis): 50%

N#CC1(c2ccc(Cl)cc2)SCC(N2CCOCC2)CS1 (stereo unspecified)
mortality at 500 ppm (Tetranychus urticae): 90%
mortality (Chilo suppressalis): 50%

CCOC(=O)C1(C(=O)OCC)SCC(N(C)C)CS1
mortality at 100 ppm [1]: 85%
mortality at 500 ppm (Tetranychus urticae): 100%
mortality (Chilo suppressalis): 100%

CCOC(=O)C1(C(C)=O)SCC(N(C)C)CS1 (stereo unspecified)
mortality at 100 ppm [1]: 30%
mortality at 500 ppm (Tetranychus urticae): 100%
mortality (Chilo suppressalis): 100%

CCOC(=O)C1(C(=O)c2ccccc2)SCC(N(C)C)CS1 (stereo unspecified)
mortality at 100 ppm [1]: 30%
mortality at 500 ppm (Tetranychus urticae): 90%
mortality (Chilo suppressalis): 100%

CC(=O)C1(C(C)=O)SCC(N(C)C)CS1
mortality at 100 ppm [1]: 70%
mortality at 500 ppm (Tetranychus urticae): 40%
mortality (Chilo suppressalis): 100%

CC(=O)C1(C(=O)c2ccccc2)SCC(N(C)C)CS1 (stereo unspecified)
mortality at 100 ppm [1]: 35%
mortality at 500 ppm (Tetranychus urticae): 80%
mortality (Chilo suppressalis): 100%

CN(C)C1CSC(C(=O)c2ccccc2)(C(=O)c2ccccc2)SC1
mortality at 100 ppm [1]: 100%
mortality at 500 ppm (Tetranychus urticae): 80%
mortality (Chilo suppressalis): 100%

CN(C)C1CSC(C(N)=O)(C(N)=O)SC1
mortality at 100 ppm [1]: 100%
mortality at 500 ppm (Tetranychus urticae): 60%
mortality (Chilo suppressalis): 100%

CCOC(=O)C1(C#N)SCC(N(C)C)CS1 (stereo unspecified)
mortality at 100 ppm [1]: 60%
mortality at 500 ppm (Tetranychus urticae): 100%
mortality (Chilo suppressalis): 100%

CCN(CC)C(=S)SC1(C#N)SCC(N(C)C)CS1 (stereo unspecified)
mortality at 100 ppm [1]: 100%
mortality at 500 ppm (Tetranychus urticae): 90%
mortality (Chilo suppressalis): 100%

CCOP(=O)(OCC)C1(C#N)SCC(N(C)C)CS1 (stereo unspecified)
mortality at 100 ppm [1]: 5%
mortality at 500 ppm (Tetranychus urticae): 100%
mortality (Chilo suppressalis): 100%

CN(C)C1CSC(C#N)(C#N)SC1
mortality at 100 ppm [1]: 100%
mortality at 500 ppm (Tetranychus urticae): 90%
mortality (Chilo suppressalis): 100%

CCCC1(C#N)SCC(N(C)C)CS1 (stereo unspecified)
mortality at 100 ppm [1]: 30%
mortality at 500 ppm (Tetranychus urticae): 70%
mortality (Chilo suppressalis): 100%

CCOC(=O)C1SCC(N(C)C)CS1 (stereo unspecified)
mortality at 100 ppm [1]: 45%
mortality at 500 ppm (Tetranychus urticae): 100%
mortality (Chilo suppressalis): 80%

CC(=O)C1SCC(N(C)C)CS1 (stereo unspecified)
mortality at 100 ppm [1]: 65%
mortality at 500 ppm (Tetranychus urticae): 100%
mortality (Chilo suppressalis): 100%

CN(C)C1CSC(C(=O)c2ccccc2)SC1 (stereo unspecified)
mortality at 100 ppm [1]: 80%
mortality at 500 ppm (Tetranychus urticae): 50%
mortality (Chilo suppressalis): 100%

CN(C)C1CSC(C#N)SC1 (stereo unspecified)
mortality at 100 ppm [1]: 30%
mortality at 500 ppm (Tetranychus urticae): 80%
mortality (Chilo suppressalis): 100%

C/C(=N\Nc1ccc(Br)cc1)C1SCC(N(C)C)CS1 (stereo unspecified)
mortality at 100 ppm [1]: 45%
mortality at 500 ppm (Tetranychus urticae): 80%
mortality (Chilo suppressalis): 100%

CN(C)C1CSSC1 [NEREISTOXIN]
mortality at 500 ppm (Tetranychus urticae): 30%
mortality (Chilo suppressalis): 100%
